target: CDK2/Cyclin E1 (Homo sapiens (Human), UniProt P24941); assay: CDK2/Cyclin E1 HTRF enzyme activity assay; type: biochemical; details: 1 mM ATP; CDK2/Cyclin E1 0.25 nM; 60 minutes at room temperature
Experimental: Example A. CDK2/Cyclin E1 HTRF Enzyme Activity Assay
CDK2/Cyclin E1 enzyme activity assays utilize full-length human CDK2 co-expressed as N-terminal GST-tagged protein with FLAG-Cyclin E1 in a baculovirus expression system (Carna Product Number 04-165). Assays were conducted in white 384-well polystyrene plates in a final reaction volume of 8 μL. CDK2/Cyclin E1 (0.25 nM) was incubated with the compounds of the Examples (40 nL serially diluted in DMSO) in the presence of ATP (50 μM or 1 mM) and 50 nM ULight™-labeled eIF4E-binding protein 1 (THR37/46) peptide (PerkinElmer) in assay buffer (containing 50 mM HEPES pH 7.5, 1 mM EGTA, 10 mM MgCl2, 2 mM DTT, 0.05 mg/mL BSA, and 0.01% Tween 20) for 60 minutes at room temperature. The reactions were stopped by the addition of EDTA and Europium-labeled anti-phospho-4E-BP1 antibody (PerkinElmer), for a final concentration of 15 mM and 1.5 nM, respectively. HTRF signals were read after 1 hour at room temperature on a PHERAstar FS plate reader (BMG Labtech). Data was analyzed with IDBS XLFit and GraphPad Prism 5.0 software using a three or four parameter dose response curve to determine IC50 for each compound.

Row | IC50 [nM] | SMILES
1 | ≤ 10 | Cc1nccc(Nc2nc3c(-c4cc(C#N)ccc4F)c(-c4cn[nH]c4)ccn3n2)c1C [Example 2, 3-(2-((2,3-Dimethylpyridin-4-yl)amino)-7-(1H-pyrazol-4-yl)-[1,2,4]triazolo[1,5-a]pyridin-8-yl)-4-fluorobenzonitrile]
2 | ≤ 10 | Cc1c(Nc2nc3c(OC(C)C)c(-c4cn[nH]c4)ncn3n2)ccnc1CN(C)C [Example 8, N-(2-((Dimethylamino)methyl)-3-methylpyridin-4-yl)-8-isopropoxy-7-(1H-pyrazol-4-yl)-[1,2,4]triazolo[1,5-c]pyrimidin-2-amine]
3 | ≤ 10 | Cc1nccc(Nc2nc3c(OC(C)C)c(-c4cn[nH]c4)ncn3n2)c1C [Example 10, N-(2,3-Dimethylpyridin-4-yl)-8-isopropoxy-7-(1H-pyrazol-4-yl)-[1,2,4]triazolo[1,5-c]pyrimidin-2-amine]
4 | ≤ 10 | Cc1nccc(Nc2nc3c(-c4ccc5c(cnn5C)c4)c(-c4cn[nH]c4)ccn3n2)c1C [Example 3, N-(2,3-Dimethylpyridin-4-yl)-8-(1-methyl-1H-indazol-5-yl)-7-(1H-pyrazol-4-yl)-[1,2,4]triazolo[1,5-a]pyridin-2-amine]
5 | ≤ 10 | CC(C)Oc1c(-c2cn[nH]c2)ncn2nc(Nc3ccc(S(C)(=O)=O)cc3F)nc12 [Example 12, N-(2-Fluoro-4-(methylsulfonyl)phenyl)-8-isopropoxy-7-(1H-pyrazol-4-yl)-[1,2,4]triazolo[1,5-c]pyrimidin-2-amine]
6 | ≤ 10 | Cc1c(Nc2nc3c(OC(C)C)c(-c4cn[nH]c4)ncn3n2)ccc2nccn12 [Example 11, 8-Isopropoxy-N-(5-methylimidazo[1,2-a]pyridin-6-yl)-7-(1H-pyrazol-4-yl)-[1,2,4]triazolo[1,5-c]pyrimidin-2-amine]
7 | ≤ 10 | Cc1nccc(Nc2nc3c(-c4ccc(CN5CCCC5)c(F)c4)c(-c4cn[nH]c4)ccn3n2)c1C [Example 5, N-(2,3-Dimethylpyridin-4-yl)-8-(3-fluoro-4-(pyrrolidin-1-ylmethyl)phenyl)-7-(1H-pyrazol-4-yl)-[1,2,4]triazolo[1,5-a]pyridin-2-amine]
8 | ≤ 10 | Cc1cc(-c2c(-c3cn[nH]c3)ccn3nc(Nc4ccnc5ccccc45)nc23)c(F)cc1C#N [Example 7, 4-(7-(1H-Pyrazol-4-yl)-2-(quinolin-4-ylamino)-[1,2,4]triazolo[1,5-a]pyridin-8-yl)-5-fluoro-2-methylbenzonitrile]
9 | ≤ 10 | Cc1c(Nc2nc3c(OC(C)C)c(-c4cn[nH]c4)ncn3n2)ccnc1CO [Example 9, (4-((8-Isopropoxy-7-(1H-pyrazol-4-yl)-[1,2,4]triazolo[1,5-c]pyrimidin-2-yl)amino)-3-methylpyridin-2-yl)methanol]
10 | ≤ 10 | Cc1nccc(Nc2nc3c(-c4ccc5c(c4)oc(=O)n5C)c(-c4cn[nH]c4)ccn3n2)c1C [Example 1, 6-(2-((2,3-Dimethylpyridin-4-yl)amino)-7-(1H-pyrazol-4-yl)-[1,2,4]triazolo[1,5-a]pyridin-8-yl)-3-methylbenzo[d]oxazol-2(3H)-one]
11 | ≤ 10 | Cc1cc(-c2c(-c3cn[nH]c3)ccn3nc(Nc4ccnc(C)c4C)nc23)c(F)cn1 [Example 6, N-(2,3-Dimethylpyridin-4-yl)-8-(5-fluoro-2-methylpyridin-4-yl)-7-(1H-pyrazol-4-yl)-[1,2,4]triazolo[1,5-a]pyridin-2-amine]
12 | ≤ 10 | Cc1nccc(Nc2nc3c(-c4ccc(CO)cc4F)c(-c4cn[nH]c4)ccn3n2)c1C [Example 4, (4-(2-((2,3-Dimethylpyridin-4-yl)amino)-7-(1H-pyrazol-4-yl)-[1,2,4]triazolo[1,5-a]pyridin-8-yl)-3-fluorophenyl)methanol]

From patent US11981671B2, “Bicyclic pyrazolyl amines as CDK2 inhibitors” (Incyte Corporation, priority 2021, dated 2024)
